In patent US8835476B2, “Synthesis of novel antimicrobials” (priority 2005, dated 2014):
Where two headings read alike, the source gives them in different places.

Tests used:
Format in all cases: cell-based
[1] = system: Ps. aeruginosa clinical isolates; assay: Broth microdilution MIC, clinical isolate strains (NAUTICA); details: unit assumed
In short: (§1)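 Clinical organisms, randomly drawn NAUTICA urinary isolates, and ATCC reference strains tested by NCCLS M7-A6 broth microdilution at 5×10^5 CFU/ml. Incubation 16 to 20 hours, 35° C, ambient air; MIC defined as lowest concentration without visible growth.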

[2] = system: Ps. aeruginosa ATCC 27853; assay: Broth microdilution MIC, ATCC strains; details: for MIC: Pseudomonas aeruginosa
In short: as §1

[3] = system: S. maltophilia ATCC 13637; assay: Broth microdilution MIC, ATCC strains; details: Stenotrophomonas maltophilia
In short: as §1

K. oxytoca ATCC 49131 = assay: Broth microdilution MIC, ATCC strains; details: Klebsiella oxytoca
In short: as §1

MRSA ATCC 33591 = assay: Broth microdilution MIC, ATCC strains; details: Staphylococcus aureus, read-out: MIC (growth inhibition, microdilution method)
In short: as §1

[4] = system: S. saprophyticus ATCC 15305; assay: Broth microdilution MIC, ATCC strains; details: Staphylococcus saprophyticus
In short: as §1

S. marcescens ATCC 8100 = assay: Broth microdilution MIC, ATCC strains; details: Serratia marcescens
In short: as §1

S. aureus ATCC 29213 = assay: Broth microdilution MIC, ATCC strains; details: for MIC: Staphylococcus aureus; for MIC (growth inhibition, microdilution method): S. aureus ATCC 29213
In short: as §1

E. faecalis ATCC 29212 = assay: Broth microdilution MIC, ATCC strains; details: for MIC: Enterococcus faecalis, read-out: MIC (growth inhibition, microdilution method)
In short: as §1

E. aerogenes ATCC 13048 = assay: Broth microdilution MIC, ATCC strains; details: Klebsiella aerogenes
In short: as §1

E. cloacae ATCC 23355 = assay: Broth microdilution MIC, ATCC strains; details: Enterobacter cloacae
In short: as §1

[5] = ATCC27853, read-out: MIC (growth inhibition, microdilution method), Ps. aeruginosa ATCC 27853
[6] = ATCC27853, Ps. aeruginosa ATCC 27853, read-out: MIC (growth inhibition, microdilution method)
[7] = ATCC13637, S. maltophilia ATCC 13637, read-out: MIC (growth inhibition, microdilution method)
[8] = ATCC49131, read-out: MIC (growth inhibition, microdilution method)
[9] = ATCC8100, read-out: MIC (growth inhibition, microdilution method)
[10] = ATCC29212, E. faecalis ATCC 29212
[11] = ATCC29212, E. faecalis, ATCC number not given
[12] = ATCC13048, read-out: MIC (growth inhibition, microdilution method)
[13] = ATCC23355, read-out: MIC (growth inhibition, microdilution method)
[14] = ATCC15305, S. saprophyticus ATCC 15305, read-out: MIC (growth inhibition, microdilution method)
[15] = ATCC29213, S. aureus ATCC 29213, read-out: MIC (growth inhibition, microdilution method)
[16] = ATCC49131, K. oxytoca ATCC 49131, read-out: MIC (growth inhibition, microdilution method)
[17] = ATCC8100, S. marcescens ATCC 8100, read-out: MIC (growth inhibition, microdilution method)
[18] = ATCC13048, E. aerogenes ATCC 13048, read-out: MIC (growth inhibition, microdilution method)
[19] = ATCC23355, E. cloacae ATCC 23355, read-out: MIC (growth inhibition, microdilution method)
[20] = E. faecalis, ATCC number not given
[21] = Table 4B, each table row is one clinical isolate

O=C(O)c1cc(-c2nnn[nH]2)c(C(=O)O)s1 [DNM-111, 3-(1H-tetrazol-5-yl)thiophene-2,5-dicarboxylic acid]
128 µg/mL: MIC, PS. AER ([1]; clinical isolates, one table line per isolate) | MIC [2, 5] | MIC (K. oxytoca ATCC 49131; [8]) | MIC (MRSA ATCC 33591) | MIC ([4]; ATCC15305, read-out: MIC (growth inhibition, microdilution method)) | MIC (S. marcescens ATCC 8100; [9]) | MIC (S. aureus ATCC 29213; ATCC29213, read-out: MIC (growth inhibition, microdilution method)) | MIC (E. aerogenes ATCC 13048; [12]) | MIC (E. cloacae ATCC 23355; [13])
8 µg/mL: MIC (E. faecalis ATCC 29212; [10]) | MIC (E. faecalis ATCC 29212; [11])
64 µg/mL: MIC [2, 6] | MIC [3, 7]

Cn1nnc(-c2cc(C(=O)O)sc2C(=O)O)n1 [DNM-112, 3-(2-Methyl-2H-tetrazol-5-yl)-thiophene-2,5-dicarboxylic acid]
> 256 µg/mL: MIC [2, 5] | MIC ([3]; ATCC13637, read-out: MIC (growth inhibition, microdilution method)) | MIC (K. oxytoca ATCC 49131; [8]) | MIC (S. marcescens ATCC 8100; [9]) | MIC (E. aerogenes ATCC 13048; [12]) | MIC (E. cloacae ATCC 23355; [13])
8 µg/mL: MIC (E. faecalis ATCC 29212; [10]) | MIC (E. faecalis ATCC 29212; [11])
16 µg/mL: MIC (MRSA ATCC 33591; MRSA ATCC 33591) | MIC (S. aureus ATCC 29213; [15])
64 µg/mL: MIC [4, 14]

O=C(O)c1cc(-c2nn[nH]n2)cs1 [DNM-116, 4-(2H-Tetrazol-5-yl)-thiophene-2-carboxylic acid]
>32 µg/mL: MIC (growth inhibition, microdilution method) (S. aureus ATCC 29213)
8 µg/mL: MIC (E. faecalis ATCC 29212; [10]) | MIC (E. faecalis ATCC 29212; [11])
32 µg/mL: MIC (S. aureus ATCC 29213; [15])
16 µg/mL: MIC [2, 6] | MIC [3, 7] | MIC (K. oxytoca ATCC 49131; [16]) | MIC [4, 14] | MIC (S. marcescens ATCC 8100; [17]) | MIC (E. aerogenes ATCC 13048; [18]) | MIC (E. cloacae ATCC 23355; [19])
> 32 µg/mL: MIC (MRSA ATCC 33591; MRSA ATCC 33591)

O=C(O)c1cc(-c2nnn[nH]2)c(-c2ccc(F)cc2)s1 [DNM-121, 5-(4-Fluoro-phenyl)-4-(1H-tetrazol-5-yl)-thiophene-2-carboxylic acid]
32 µg/mL: MIC (growth inhibition, microdilution method) (S. aureus ATCC 29213)
8 µg/mL: MIC (E. faecalis ATCC 29212; [10]) | MIC (E. faecalis ATCC 29212; [11])
64 µg/mL: MIC [2, 6] | MIC [3, 7] | MIC (K. oxytoca ATCC 49131; [16]) | MIC (MRSA ATCC 33591; MRSA ATCC 33591) | MIC [4, 14] | MIC (S. marcescens ATCC 8100; [17]) | MIC (S. aureus ATCC 29213; [15]) | MIC (E. aerogenes ATCC 13048; [18]) | MIC (E. cloacae ATCC 23355; [19])

Cn1nnc(-c2cc(C(=O)O)sc2-c2ccc(F)cc2)n1 [DNM-123, 5-(4-fluorophenyl)-4-(2-methyl-2H-tetrazol-5-yl)thiophene-2-carboxylic acid]
8 µg/mL: MIC (growth inhibition, microdilution method) ([2]; Ps. aeruginosa ATCC 27853) | MIC [2, 6] | MIC (S. marcescens ATCC 8100; [17]) | MIC (growth inhibition, microdilution method) (E. faecalis ATCC 29212; E. faecalis ATCC 29212) | MIC (growth inhibition, microdilution method) (E. faecalis ATCC 29212; [20]) | MIC (E. faecalis ATCC 29212; [10]) | MIC (E. faecalis ATCC 29212; [11]) | MIC (E. aerogenes ATCC 13048; [18]) | MIC (E. cloacae ATCC 23355; [19])
> 8 µg/mL: MIC (K. oxytoca ATCC 49131; [16]) | MIC (MRSA ATCC 33591; MRSA ATCC 33591) | MIC [4, 14] | MIC (S. aureus ATCC 29213; [15])
≤ 0.5 µg/mL: MIC [3, 7]

CCOC(=O)c1cc(-c2nnn[nH]2)c(-c2ccc(F)cc2)s1 [DNM-124, 5-(4-Fluoro-phenyl)-4-(1H-tetrazol-5-yl)-thiophene-2-carboxylic acid ethyl ester]
> 64 µg/mL: MIC [2, 6] | MIC (K. oxytoca ATCC 49131; [16]) | MIC (MRSA ATCC 33591; MRSA ATCC 33591) | MIC [4, 14] | MIC (S. marcescens ATCC 8100; [17]) | MIC (S. aureus ATCC 29213; [15]) | MIC (E. faecalis ATCC 29212; [10]) | MIC (E. faecalis ATCC 29212; [11]) | MIC (E. aerogenes ATCC 13048; [18]) | MIC (E. cloacae ATCC 23355; [19])
64 µg/mL: MIC [3, 7]

Fc1ccc(-c2cc(-c3nnn[nH]3)c(-c3ccc(F)cc3)s2)cc1 [DNM-131, 5-(2,5-Bis(4-fluorophenyl)thiophen-3-yl)-1H-tetrazole]
>32 µg/mL: MIC (growth inhibition, microdilution method) (S. aureus ATCC 29213) | MIC (growth inhibition, microdilution method) (E. faecalis ATCC 29212; [20])
32 µg/mL: MIC (S. aureus ATCC 29213; [15]) | MIC (E. faecalis ATCC 29212; [11])
> 32 µg/mL: MIC, PS. AER [1, 21] | MIC [2, 6] | MIC [3, 7] | MIC (K. oxytoca ATCC 49131; [16]) | MIC (MRSA ATCC 33591; MRSA ATCC 33591) | MIC [4, 14] | MIC (S. marcescens ATCC 8100; [17]) | MIC (E. faecalis ATCC 29212; [10]) | MIC (E. aerogenes ATCC 13048; [18]) | MIC (E. cloacae ATCC 23355; [19])

Cn1nnnc1-c1cc(-c2ccc(F)cc2)sc1-c1ccc(F)cc1 [DNM-133, 5-(2,5-Bis(4-fluorophenyl)thiophen-3-yl)-1-methyl-1H-tetrazole]
> 16 µg/mL: MIC, PS. AER [1, 21] | MIC [2, 6] | MIC [3, 7] | MIC (K. oxytoca ATCC 49131; [16]) | MIC (MRSA ATCC 33591; MRSA ATCC 33591) | MIC [4, 14] | MIC (S. marcescens ATCC 8100; [17]) | MIC (S. aureus ATCC 29213; [15]) | MIC (E. faecalis ATCC 29212; [10]) | MIC (E. faecalis ATCC 29212; [11]) | MIC (E. aerogenes ATCC 13048; [18]) | MIC (E. cloacae ATCC 23355; [19])

O=C(O)c1sc(-c2ccc(F)cc2)cc1-c1nnn[nH]1 [DNM-141, 5-(4-Fluoro-phenyl)-3-(1H-tetrazol-5-yl)-thiophene-2-carboxylic acid]
> 16 µg/mL: MIC, PS. AER [1, 21] | MIC [2, 6] | MIC [3, 7] | MIC (K. oxytoca ATCC 49131; [16]) | MIC (MRSA ATCC 33591; MRSA ATCC 33591) | MIC [4, 14] | MIC (S. marcescens ATCC 8100; [17]) | MIC (S. aureus ATCC 29213; [15]) | MIC (E. faecalis ATCC 29212; [10]) | MIC (E. faecalis ATCC 29212; [11]) | MIC (E. aerogenes ATCC 13048; [18]) | MIC (E. cloacae ATCC 23355; [19])

Cn1nnc(-c2cc(-c3ccc(F)cc3)sc2C(=O)O)n1 [DNM-142, 5-(4-Fluoro-phenyl)-3-(2-methyl-2H-tetrazol-5-yl)-thiophene-2-carboxylic acid]
> 16 µg/mL: MIC, PS. AER [1, 21] | MIC [2, 6] | MIC [3, 7] | MIC (K. oxytoca ATCC 49131; [16]) | MIC (MRSA ATCC 33591; MRSA ATCC 33591) | MIC [4, 14] | MIC (S. marcescens ATCC 8100; [17]) | MIC (S. aureus ATCC 29213; [15]) | MIC (E. faecalis ATCC 29212; [10]) | MIC (E. faecalis ATCC 29212; [11]) | MIC (E. aerogenes ATCC 13048; [18]) | MIC (E. cloacae ATCC 23355; [19])

Cn1nnnc1-c1cc(-c2ccc(F)cc2)sc1C(=O)O [DNM-143, 5-(4-Fluoro-phenyl)-3-(1-methyl-1H-tetrazol-5-yl)-thiophene-2-carboxylic acid]
> 8 µg/mL: MIC, PS. AER [1, 21] | MIC [2, 6] | MIC [3, 7] | MIC (K. oxytoca ATCC 49131; [16]) | MIC (MRSA ATCC 33591; MRSA ATCC 33591) | MIC [4, 14] | MIC (S. marcescens ATCC 8100; [17]) | MIC (S. aureus ATCC 29213; [15]) | MIC (E. faecalis ATCC 29212; [10]) | MIC (E. faecalis ATCC 29212; [11]) | MIC (E. aerogenes ATCC 13048; [18]) | MIC (E. cloacae ATCC 23355; [19])
